Experimental data from article PMC6301967, “Molecular comparison of Neanderthal and Modern Human adenylosuccinate lyase” (Scientific Reports, 2018).

Legend:
[1] = target: T1, hADSL (modern human adenylosuccinate lyase) (Homo sapiens, UniProt P30566); experiment: small angle X-ray scattering; assay type: binding; settings: 1 mM product(s), with fumarate; 20 °C; no curve change with AICAR alone
T1 construct: gene ADSL; N-terminal thrombin-cleavable His tag (pET-14b), E. coli Rosetta2 (DE3); tag cut, but kept for the domain 3 mutants; homotetramer; Val429
T1 sequence (P30566 1-484): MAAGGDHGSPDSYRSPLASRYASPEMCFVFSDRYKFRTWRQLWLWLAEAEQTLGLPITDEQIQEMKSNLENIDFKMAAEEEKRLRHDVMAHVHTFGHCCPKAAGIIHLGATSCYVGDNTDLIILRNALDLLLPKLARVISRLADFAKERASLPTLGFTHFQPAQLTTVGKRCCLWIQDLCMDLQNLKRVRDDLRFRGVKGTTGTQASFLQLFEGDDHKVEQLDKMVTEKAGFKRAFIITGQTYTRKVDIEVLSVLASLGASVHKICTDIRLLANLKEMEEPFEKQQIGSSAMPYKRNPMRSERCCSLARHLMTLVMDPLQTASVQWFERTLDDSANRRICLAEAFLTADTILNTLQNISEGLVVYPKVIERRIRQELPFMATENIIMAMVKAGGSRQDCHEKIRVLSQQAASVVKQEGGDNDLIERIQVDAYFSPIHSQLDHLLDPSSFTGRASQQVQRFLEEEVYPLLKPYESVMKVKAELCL

[2] = target: T2, nADSL (Neanderthal adenylosuccinate lyase); experiment: isothermal titration calorimetry; assay type: binding, Homo sapiens neanderthalensis; settings: 10 mM HEPES pH 7.5, 100 mM NaCl, 1 mM DTT, 20 °C; 90 µM protein in cell
T2 construct: gene ADSL; Neanderthal (ancestral Ala429) variant, equals human ADSL with V429A; N-terminal thrombin-cleavable His tag (pET-14b), cut; E. coli Rosetta2 (DE3); homotetramer

[3] = target: T1, hADSL (modern human adenylosuccinate lyase); experiment: isothermal titration calorimetry; assay type: binding
[4] = tested on: T2, nADSL (Neanderthal adenylosuccinate lyase); experiment: absorbance at […] nm, SAMP breakdown; assay type: biochemical, Homo sapiens neanderthalensis; settings: forward reaction, room temperature; positive cooperativity, Hill coefficient 1.8; read-out: K0.5
[5] = tested on: T2, nADSL (Neanderthal adenylosuccinate lyase); experiment: absorbance at […] nm, SAMP formation; assay type: biochemical, Homo sapiens neanderthalensis; settings: reverse reaction, 1 mM AMP, room temperature; Michaelis-Menten fit
[6] = target: T1, hADSL (modern human adenylosuccinate lyase); experiment: absorbance at […] nm, SAMP formation; assay type: biochemical; settings: reverse reaction, 1 mM AMP, room temperature; Michaelis-Menten fit
[7] = target: the molecule itself; experiment: SEC; Superdex 200 in 10 mM HEPES pH 7.5, 100 mM NaCl, 1 mM DTT; last step of the purification; single peak
purified protein = substrate: O=C(O)C[C@H](Nc1ncnc2c1ncn2[C@@H]1O[C@H](COP(=O)(O)O)[C@@H](O)[C@H]1O)C(=O)O; experiment: purified protein; assay type: biochemical, Homo sapiens; settings: room temperature
[8] = target: the molecule itself; experiment: crystal structure; nADSL apo (1.7 Å), with AMP/fumarate (2.3 Å) and with AICAR/fumarate; vapour diffusion, 10 mg/mL protein; homotetramer
[9] = His tag not cleaved, 0.01 mg/mL enzyme, cooperative model fit

Molecule: NC(=O)c1ncn([C@@H]2O[C@H](COP(=O)(O)O)[C@@H](O)[C@H]2O)c1N [AICAR]
- small angle X-ray scattering [1]: addition of both AMP/fumarate or AICAR/fumarate to the protein results in a similar altered scattering

Molecule: Nc1ncnc2c1ncn2[C@@H]1O[C@H](COP(=O)(O)O)[C@@H](O)[C@H]1O [AMP]
- Kd [2]: ~25 µM
- Kd [3]: ~25 µM

Molecule: O=C(O)C[C@H](Nc1ncnc2c1ncn2[C@@H]1O[C@H](COP(=O)(O)O)[C@@H](O)[C@H]1O)C(=O)O [SAMP]
- Km [4]: 1.1 µM

Molecule: O=C(O)/C=C/C(=O)O [fumarate]
- Km [5]: 66 µM
- Km [6]: 80 µM

B1: modern human adenylosuccinate lyase (enzyme, UniProt P30566 1-484, looked up)
chain: MAAGGDHGSPDSYRSPLASRYASPEMCFVFSDRYKFRTWRQLWLWLAEAEQTLGLPITDEQIQEMKSNLENIDFKMAAEEEKRLRHDVMAHVHTFGHCCPKAAGIIHLGATSCYVGDNTDLIILRNALDLLLPKLARVISRLADFAKERASLPTLGFTHFQPAQLTTVGKRCCLWIQDLCMDLQNLKRVRDDLRFRGVKGTTGTQASFLQLFEGDDHKVEQLDKMVTEKAGFKRAFIITGQTYTRKVDIEVLSVLASLGASVHKICTDIRLLANLKEMEEPFEKQQIGSSAMPYKRNPMRSERCCSLARHLMTLVMDPLQTASVQWFERTLDDSANRRICLAEAFLTADTILNTLQNISEGLVVYPKVIERRIRQELPFMATENIIMAMVKAGGSRQDCHEKIRVLSQQAASVVKQEGGDNDLIERIQVDAYFSPIHSQLDHLLDPSSFTGRASQQVQRFLEEEVYPLLKPYESVMKVKAELCL
notes: adenylosuccinate lyase (ADSL), modern human (Val429); Expressed from pET-14b with a thrombin-cleavable N-terminal histidine tag; also called hADSL; native hADSL; source: E. coli Rosetta2 (DE3), purified (HisTrap, thrombin cleavage, benzamidine-sepharose, Superdex 200); not shown: histidine tag, N-terminal, cleaved
- stoichiometry N [7]: 4
- K0.5 (purified protein; forward reaction, positive cooperativity, Hill coefficient 1.6): 1.1 µM

B2: hADSL (modern human adenylosuccinate lyase) (Homo sapiens; D422Y) (protein)
chain: MAAGGDHGSPDSYRSPLASRYASPEMCFVFSDRYKFRTWRQLWLWLAEAEQTLGLPITDEQIQEMKSNLENIDFKMAAEEEKRLRHDVMAHVHTFGHCCPKAAGIIHLGATSCYVGDNTDLIILRNALDLLLPKLARVISRLADFAKERASLPTLGFTHFQPAQLTTVGKRCCLWIQDLCMDLQNLKRVRDDLRFRGVKGTTGTQASFLQLFEGDDHKVEQLDKMVTEKAGFKRAFIITGQTYTRKVDIEVLSVLASLGASVHKICTDIRLLANLKEMEEPFEKQQIGSSAMPYKRNPMRSERCCSLARHLMTLVMDPLQTASVQWFERTLDDSANRRICLAEAFLTADTILNTLQNISEGLVVYPKVIERRIRQELPFMATENIIMAMVKAGGSRQDCHEKIRVLSQQAASVVKQEGGDNYLIERIQVDAYFSPIHSQLDHLLDPSSFTGRASQQVQRFLEEEVYPLLKPYESVMKVKAELCL
notes: N-terminal thrombin-cleavable His tag (pET-14b), E. coli Rosetta2 (DE3); tag cut, but kept for the domain 3 mutants; homotetramer; Val429
- K0.5 (purified protein; [9]): 0.36 ± 0.03 µM

B3: hADSL (modern human adenylosuccinate lyase) (Homo sapiens; R426H) (protein)
chain: MAAGGDHGSPDSYRSPLASRYASPEMCFVFSDRYKFRTWRQLWLWLAEAEQTLGLPITDEQIQEMKSNLENIDFKMAAEEEKRLRHDVMAHVHTFGHCCPKAAGIIHLGATSCYVGDNTDLIILRNALDLLLPKLARVISRLADFAKERASLPTLGFTHFQPAQLTTVGKRCCLWIQDLCMDLQNLKRVRDDLRFRGVKGTTGTQASFLQLFEGDDHKVEQLDKMVTEKAGFKRAFIITGQTYTRKVDIEVLSVLASLGASVHKICTDIRLLANLKEMEEPFEKQQIGSSAMPYKRNPMRSERCCSLARHLMTLVMDPLQTASVQWFERTLDDSANRRICLAEAFLTADTILNTLQNISEGLVVYPKVIERRIRQELPFMATENIIMAMVKAGGSRQDCHEKIRVLSQQAASVVKQEGGDNDLIEHIQVDAYFSPIHSQLDHLLDPSSFTGRASQQVQRFLEEEVYPLLKPYESVMKVKAELCL
notes: as for B2
- K0.5 (purified protein; [9]): 0.75 ± 0.06 µM

B4: Neanderthal adenylosuccinate lyase (enzyme)
chain: MAAGGDHGSPDSYRSPLASRYASPEMCFVFSDRYKFRTWRQLWLWLAEAEQTLGLPITDEQIQEMKSNLENIDFKMAAEEEKRLRHDVMAHVHTFGHCCPKAAGIIHLGATSCYVGDNTDLIILRNALDLLLPKLARVISRLADFAKERASLPTLGFTHFQPAQLTTVGKRCCLWIQDLCMDLQNLKRVRDDLRFRGVKGTTGTQASFLQLFEGDDHKVEQLDKMVTEKAGFKRAFIITGQTYTRKVDIEVLSVLASLGASVHKICTDIRLLANLKEMEEPFEKQQIGSSAMPYKRNPMRSERCCSLARHLMTLVMDPLQTASVQWFERTLDDSANRRICLAEAFLTADTILNTLQNISEGLVVYPKVIERRIRQELPFMATENIIMAMVKAGGSRQDCHEKIRVLSQQAASVVKQEGGDNDLIERIQADAYFSPIHSQLDHLLDPSSFTGRASQQVQRFLEEEVYPLLKPYESVMKVKAELCL
notes: Expressed from pET-14b with a thrombin-cleavable N-terminal histidine tag; also called nADSL; ancestral Ala429 ADSL variant; source: E. coli Rosetta2 (DE3), purified (HisTrap, thrombin cleavage, benzamidine-sepharose, Superdex 200); not shown: histidine tag, N-terminal, cleaved
- stoichiometry N [8]: 4
